Results on 1 compound are retold here after patent US20250281499A1, “FUSED AMINO PYRIMIDINE COMPOUNDS FOR TREATMENT OF NEUROPATHIC AND NEURO-INFLAMMATORY PAIN” (Ovid Therapeutics Inc., priority 2024, published 2025).

The structures appear in SMILES notation.

One experiment concerns the target T1, KCC2 (Homo sapiens, UniProt Q9H2X9).
T1 construct: expressed in transfected cells; host or cells: HEK-293 (ATCC CRL-1573), Lipofectamine 2000, used 48-72 h after transfection
T1 sequence (Q9H2X9 1-1116 isoform Q9H2X9-2): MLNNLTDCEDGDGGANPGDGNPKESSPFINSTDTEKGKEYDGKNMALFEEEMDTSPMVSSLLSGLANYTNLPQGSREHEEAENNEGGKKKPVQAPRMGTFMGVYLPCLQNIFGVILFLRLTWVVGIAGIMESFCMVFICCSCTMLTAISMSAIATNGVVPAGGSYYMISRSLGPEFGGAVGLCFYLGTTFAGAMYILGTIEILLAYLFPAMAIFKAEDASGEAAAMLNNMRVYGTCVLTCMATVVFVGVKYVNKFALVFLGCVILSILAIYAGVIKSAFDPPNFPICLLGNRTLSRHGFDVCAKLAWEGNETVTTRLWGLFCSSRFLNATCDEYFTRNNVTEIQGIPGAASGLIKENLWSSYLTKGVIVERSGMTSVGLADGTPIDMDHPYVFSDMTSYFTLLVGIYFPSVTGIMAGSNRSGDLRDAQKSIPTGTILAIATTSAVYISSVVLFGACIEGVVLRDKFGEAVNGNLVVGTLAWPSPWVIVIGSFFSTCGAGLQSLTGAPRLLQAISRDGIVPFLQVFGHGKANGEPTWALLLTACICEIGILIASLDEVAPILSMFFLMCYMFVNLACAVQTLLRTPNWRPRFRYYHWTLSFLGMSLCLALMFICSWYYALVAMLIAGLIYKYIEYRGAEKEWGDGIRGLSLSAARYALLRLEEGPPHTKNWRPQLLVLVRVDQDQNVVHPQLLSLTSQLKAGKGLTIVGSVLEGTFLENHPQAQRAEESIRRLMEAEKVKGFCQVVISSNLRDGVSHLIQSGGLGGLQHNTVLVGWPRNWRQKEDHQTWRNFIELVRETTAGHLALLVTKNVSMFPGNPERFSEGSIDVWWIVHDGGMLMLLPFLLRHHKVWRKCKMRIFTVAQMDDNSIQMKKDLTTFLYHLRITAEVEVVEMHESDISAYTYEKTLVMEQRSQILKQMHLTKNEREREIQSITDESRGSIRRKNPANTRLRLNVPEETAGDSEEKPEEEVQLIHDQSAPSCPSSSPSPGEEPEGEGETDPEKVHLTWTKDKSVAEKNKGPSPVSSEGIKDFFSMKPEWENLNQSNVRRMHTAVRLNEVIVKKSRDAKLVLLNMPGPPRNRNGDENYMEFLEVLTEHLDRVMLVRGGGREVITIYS
Kind of experiment: FLIPR thallium (Tl+) flux assay in HEK-293 cells expressing KCC2. The following applies: saturating concentration of 3 μM, 1% BCD vehicle. The class given is cell-based. Here is the method: A multi-tiered high-throughput screening assay was used, leveraging a proprietary library of 1.3 million small molecule compounds from AstraZeneca (Cambridge, UK) to identify chemical entities capable of activating KCC2. A single point concentration of 30 μM was used to identify potassium flux using an established thallium (TI+) influx FLIPR assay as the primary read out in HEK-293 cells overexpressing KCC2 (Cardarelli et al., Nat. Med. 23, 1394-1396 (2017); Conway et al., J Biol Chem 292, 21253-21263 (2017); Lee et al., 2022, supra).
Cell Culture and biotinylation. […]
FLIPR TI Flux assay. HEK-293 cells were washed with HBSS, and then incubated with loading buffer containing TI sensitive fluorescent dye (https://www.moleculardevices.com), 20 μM bumetanide 20 μM ouabain and 2.5 mM probenecid for 1 h at room temperature (RT) under control conditions or with drugs in the dark using a FlexStation 3 microplate reader (Molecular Devices) and imaged […] for 30 min. Stimulus buffer was added containing 5 mM K^+/0.5 mM Tl^+ and cells were imaged every 1.5 over a 190 second time course The initial rate Tl^+ uptake (Relative Fluorescence Units (RFU) per second) was determined following addition of the stimulus buffer as outlined previously (Conway et al., 2017, supra) (Lee et al., 2022, supra). […]

The test system of another experiment is hippocampal neurons. Kind of experiment: Whole cell patch-clamp with imposed Cl− load in hippocampal neurons. The class given is cell-based, Sprague Dawley. The following applies: 1 h incubation, 32 mM Cl− load; controls −47.4±2.3. Here is the method: Neuronal Cultures. Hippocampal neurons were prepared from Sprague Dawley E18 embryos and plated at 450,000 per dish and maintained at 37° C. in a humidified 5% CO2 incubator for 10-25 days before experimentation (Lee et al., Nat. Neurosci. 14, 736-743 (2011)).
Neuronal Patch clamp assays. Neuronal cell culture recordings were performed in bath saline at 34° C. For gramicidin perforated-patch experiments, pipettes contained (in mM): 140 KCl and 10 HEPES, pH 7.4 KOH. For whole-cell experiments, pipettes contained (in mM): 115 K-meth-SO4, 30 KCl, 2 Mg-ATP, 4 Na-ATP, 0.4 Na-GTP, and 10 HEPES, pH 7.4 KOH. Bath saline contained the following (in mM): 140 NaCl, 2.5 KCl, 2.5 CaCl2, 2.5 MgCl2, 10 HEPES, and 11 glucose, pH 7.4 NaOH (Kontou et al., 2021, supra). All compound solutions were applied to cells using a three-barreled 700 μm pipe positioned just above the cell (Warner Instruments). […] All voltages from whole-cell experiments were corrected offline using a calculated liquid junction potential value (13.6 mV) in Clampex (Molecular Devices). For gramicidin perforated-patch experiments, intracellular Cl^− values were back-calculated using measured EGABA values and the Nernst equation: […]
5 min after break-in, an initial EGABA value was determined and the effects of a subsequent 5 min incubation with VU0463271 was assessed.
(In patch-clamp work, channel activity is measured electrically.)

In the case of `C[C@@H]1CN(c2nc3c(c(Nc4ccc(C5CCCCC5)cc4)n2)COC3)CCO1` [Compound A, (R)—N-(4-cyclohexylphenyl)-2-(2-methylmorpholino)-5,7-dihydrofuro[3,4-d]pyrimidin-4-amine], the “maximum potentiation of KCC2” value on KCC2 turned out to be 90%. Also, the “basal EGABA” value with hippocampal neurons is reported as −59.3±2.1 mV.
